What was measured:
Rattus norvegicus [1] = species: Rattus norvegicus; test: animal or person; details: Sprague-Dawley, po, read-out: INH
Rattus norvegicus [2] = species: Rattus norvegicus; test: animal or person; details: Sprague-Dawley, po, read-out: INH; remark: listed apart in the source
Rattus norvegicus [3] = test: Antidiabetic activity in po dosed Sprague-Dawley rat assessed as inhibition of glucose excursion administered 30 mins prior glucose challenge measured over 30 to 120 mins post challenge by OGTT; type: functional, organism-based
Rattus norvegicus [4] = species: Rattus norvegicus; test: animal or person; details: Sprague-Dawley, po, read-out: INH; remark: listed apart in the source

Question: What does the source list for `N#C[C@@H]1CCCN1C(=O)[C@@H](N)Cc1ccc(-c2cn(Cc3ccc(F)cc3)nn2)cc1`?
Answer: inhibition in vivo at 3 mg/kg (Rattus norvegicus [1]): 21.7%; inhibition in vivo at 1 mg/kg (Rattus norvegicus [2]): 20.8%; inhibition (Rattus norvegicus [3]): Dose-dependent effect; inhibition in vivo at 10 mg/kg (Rattus norvegicus [4]): 28.8%

Reference: ChEMBL document CHEMBL2417472, “Synthesis and biological evaluation of novel benzyl-substituted (S)-phenylalanine derivatives as potent dipeptidyl peptidase 4 inhibitors” (Bioorg Med Chem, 2013)
